Results reported in patent publication US9822115B2, “Nitrogen containing compounds and their use as antibacterial agents” (WOCKHARDT LIMITED, priority 2014, dated 2017).
≈ marks a conversion by molar mass, not a printed value. Where two headings read alike, the source gives them in different places.

Columns and labels:
[1] = test system: K. pneumoniae H521 (KPC, SHV, TEM); assay: Antibacterial activity, MIC by agar dilution (CLSI); assay type: cell-based; details: Klebsiella pneumoniae
Method in brief: (§1)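 Agar dilution per CLSI on Mueller Hinton agar with doubling compound dilutions, about 10^4 CFU/spot by multipoint inoculator. Plates incubated 16-20 h at 35±2° C in ambient air; procedure also gives 37° C for 18 h. MIC (mcg/ml) scored as growth or no growth.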

[2] = test system: E. coli NCTC 13353 (CTX-M15, OXA-1); assay: as above; assay type: cell-based; details: Escherichia coli
Method in brief: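 CLSI agar dilution on Mueller Hinton agar containing doubling compound dilutions, inoculated at about 10^4 CFU/spot from fresh cultures. Plates were incubated 18 h at 37 °C in ambient air before growth scoring. MIC is reported in mcg/ml.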

[3] = target: T1, Class A beta-lactamase, K. pneumoniae ATCC 700603 (SHV 18) (Klebsiella pneumoniae, UniProt P0AD64, E235K/G234A/R39S); assay: biochemical
T1 construct: preincubated mixture of crude enzyme and the agents; endogenous in cells; host or cells: K. pneumoniae ATCC 700603
Method in brief: (§2)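 Crude enzyme preincubated with inhibitor 10 min at 37 °C, then nitrocefin (100 uM) added for 5 min. Absorbance read at 485 nm; IC50 obtained from sigmoidal dose-response fit of absorbance versus concentration.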

E. coli NCTC 13353 = assay: Zone of inhibition, compound alone and in combination with ceftazidime (agar well); assay type: cell-based; details: for zone of inhibition at 0.25 µg/disc / zone of inhibition at 0.5 µg/disc / zone of inhibition at 1 µg/disc / zone of inhibition at […]: Escherichia coli, NCTC13353, E. coli NCTC 13353, read-out: Diameter of Zone of Inhibition; for zone of inhibition at 0.5 µg/disc: 0.5 μg/well; for zone of inhibition at 1 µg/disc: 1 μg/well
Protocol: (§3) Determination of antibacterial activity of combinations according to invention: In a typical experiment, two sets of plates containing growth media (Molten Mueller Hilton Agar) and bacterial strains were prepared. One set of plates was taken as control (without ceftazidime) and other set contained ceftazidime. The media was allowed to solidify and wells were punched later. A two-fold serial dilution range of each of the compounds according to invention was prepared and 50 μl of each of the dilution was added into the punched well. […] The Table 5 provides the antibacterial activity of the combination comprising compounds according to invention and ceftazidime.

E. coli M50 = assay: as above; assay type: cell-based; details: for zone of inhibition at 0.5 µg/disc: 0.5 μg/well; for zone of inhibition at 1 µg/disc: 1 μg/well; for Diameter of Zone of Inhibition: E. coli M50
Protocol: as §3

[4] = target: T2, Class D beta-lactamase, A. baumannii NCTC 13301 (OXA 23) (Acinetobacter baumannii, UniProt Q9L4P2); assay: Beta-lactamase enzyme inhibition (nitrocefin, crude enzyme); assay type: biochemical; details: Class D A. baumannii NCTC 13301 (OXA 23); read-out: Beta-lactamase enzyme inhibition IC50
T2 construct: preincubated mixture of crude enzyme and the agents; endogenous in cells; host or cells: A. baumannii NCTC 13301
Method in brief: as §2

[5] = test system: K. pneomoniae S48 (NDM, SHV, TEM); assay: Antibacterial activity, MIC by agar dilution (CLSI); assay type: cell-based, K. pneumoniae; details: Klebsiella pneumoniae
Method in brief: as §1

[6] = test system: T3, Class C beta-lactamase, E. coli M50 (CMY/DHA); assay type: biochemical; details: read-out: Beta-lactamase enzyme inhibition IC50
T3 construct: no borders, tags or purification printed
Protocol: Determination of enzyme inhibition activity: Concentration of the inhibitor required to inhibit 50% of enzymatic activity was measured by adding a chromogenic substrate, Nitrocefin (100 uM, 5 min) to the preincubated mixture of crude enzyme and the agents (37° C., 10 min). Absorbance was measured at 485 nm by UV-spectrophotometer. The IC50 was calculated by plotting absorbance against concentration through Sigmoidal dose response curve using Graph Pad software.
The enzyme inhibition was expressed as IC50.

[7] = Table 2, K. pneumoniae H521 (KPC, SHV, TEM), read-out: MIC
[8] = NCTC13353, Table 2, E. Coli NCTC 13353 (CTX-M15, OXA-1), read-out: MIC
[9] = Compound + Ceftazidime (10 μg/ml), 0.25 μg/well
[10] = Compound + Ceftazidime (10 μg/ml)
[11] = Escherichia coli, M50, E. coli M50, Compound + Ceftazidime (10 μg/ml), 0.25 μg/well, read-out: Diameter of Zone of Inhibition
[12] = Escherichia coli, M50, E. coli M50, Compound + Ceftazidime (10 μg/ml), read-out: Diameter of Zone of Inhibition
[13] = Escherichia coli, M50, E. coli M50, Compound alone, read-out: Diameter of Zone of Inhibition
[14] = Table 2, K. pneomoniae S48 (NDM, SHV, TEM), read-out: MIC

T1 sequence (P0AD64 22-286 R39S/G234A/E235K): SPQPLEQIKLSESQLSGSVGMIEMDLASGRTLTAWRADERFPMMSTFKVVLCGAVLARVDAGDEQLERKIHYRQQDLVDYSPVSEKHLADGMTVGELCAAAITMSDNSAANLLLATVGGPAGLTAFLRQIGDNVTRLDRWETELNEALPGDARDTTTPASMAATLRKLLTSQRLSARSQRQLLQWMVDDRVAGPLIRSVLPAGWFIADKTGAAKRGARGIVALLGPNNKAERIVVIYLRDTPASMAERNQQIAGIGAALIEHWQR
T2 sequence (Q9L4P2 18-273): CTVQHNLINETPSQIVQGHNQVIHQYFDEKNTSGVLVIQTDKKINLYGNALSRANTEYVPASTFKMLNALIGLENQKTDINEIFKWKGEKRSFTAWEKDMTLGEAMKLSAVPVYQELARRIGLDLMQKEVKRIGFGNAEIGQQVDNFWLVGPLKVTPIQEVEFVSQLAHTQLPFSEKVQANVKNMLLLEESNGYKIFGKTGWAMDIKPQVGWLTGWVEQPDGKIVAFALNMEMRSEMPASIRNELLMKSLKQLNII

Row | SMILES | MIC [1, 7] [µg/mL] | MIC [2, 8] [µg/mL] | IC50 [3] [nM] | zone of inhibition at 0.25 µg/disc (E. coli NCTC 13353; [9]) [mm] | zone of inhibition at 0.5 µg/disc (E. coli NCTC 13353; [10]) [mm] | zone of inhibition at 1 µg/disc (E. coli NCTC 13353; [10]) [mm] | zone of inhibition at […] (E. coli NCTC 13353; [10]) [mm] | zone of inhibition at 0.5 µg/disc (E. coli NCTC 13353; Compound alone) [mm] | zone of inhibition at 1 µg/disc (E. coli NCTC 13353; Compound alone) [mm] | zone of inhibition at 0.25 µg/disc (E. coli M50; [11]) [mm] | zone of inhibition at 0.5 µg/disc (E. coli M50; [12]) [mm] | zone of inhibition at 1 µg/disc (E. coli M50; [12]) [mm] | zone of inhibition at 0.5 µg/disc (E. coli M50; [13]) [mm] | zone of inhibition at 1 µg/disc (E. coli M50; [13]) [mm] | IC50 [4] [nM] | MIC [5, 14] [µg/mL] | IC50 [6] [nM] | other results
1 | NCc1ccc(CC(=O)NNC(=O)[C@@H]2CC[C@@H]3CN2C(=O)N3OS(=O)(=O)O)cc1 [Example 12, (2S,5R)-sulfuric acid mono-[2-(N′-(4-aminomethyl-phenyl-acetyl)-hydrazinocarbonyl)-7-oxo-1,6-diaza-bicyclo[3.2.1]oct-6-yl]ester] | 0.25 (≈ 0.585 µM) | 0.25 (≈ 0.585 µM) | 144 | 22 | 26 | 29 | 19 | 17 | 19 | 19 | 21 | 23 | 18 | 19.5 | 539 | 0.25 (≈ 0.585 µM) | 13 | zone of inhibition at 0.25 µg/disc (E. coli NCTC 13353; Compound alone, 0.25 μg/well): 15.5 mm; zone of inhibition at […] (E. coli M50; Escherichia coli, M50, E. coli M50, Compound + Ceftazidime (10 μg/ml), […], read-out: Diameter of Zone of Inhibition): 16 mm; zone of inhibition at 0.25 µg/disc (E. coli M50; Escherichia coli, M50, E. coli M50, Compound alone, 0.25 μg/well, read-out: Diameter of Zone of Inhibition): 15 mm
2 | C[C@@H](N)COc1ccccc1CC(=O)NNC(=O)[C@@H]1CC[C@@H]2CN1C(=O)N2OS(=O)(=O)O [Example 3, (2S,5R)-Sulfuric Acid mono-[2-(N′-{2-[2-((R)-2-amino-propoxy)-phenyl]-acetyl}-hydrazinocarbonyl)-7-oxo-1,6-diaza-bicyclo[3.2.1]oct-6-yl]ester] | 2 (≈ 4.24 µM) | 1 (≈ 2.12 µM) | 80 | 14.5 | 17.5 | 21.5 | 11 | 10 | 13 | 10.5 | 14 | 17 | 11.5 | 14 | 2020 | 1 (≈ 2.12 µM) | 73 | Diameter of Zone of Inhibition (E. coli NCTC 13353; E. coli NCTC 13353, Compound alone, 0.25 μg/well): No growth; Diameter of Zone of Inhibition (E. coli M50; Compound + Ceftazidime (10 μg/ml), […]): No growth; Diameter of Zone of Inhibition (E. coli M50; Compound alone, 0.25 μg/well): No growth
3 | O=C(Cc1ccccc1OC[C@H]1CCCN1)NNC(=O)[C@@H]1CC[C@@H]2CN1C(=O)N2OS(=O)(=O)O [Example 57, (2S,5R)-sulfuric acid mono-[2-(N′-{2-[2-((R)-pyrrolidin-2-ylmethoxy)-phenyl]-acetyl}-hydrazinocarbonyl)-7-oxo-1,6-diaza-bicyclo[3.2.1]oct-6-yl]ester] | 4 (≈ 8.04 µM) | 2 (≈ 4.02 µM) | 125 |  |  |  |  |  |  |  |  |  |  |  | 3290 | 2 (≈ 4.02 µM) | 105 | 
4 | Nc1ccccc1CC(=O)NNC(=O)[C@@H]1CC[C@@H]2CN1C(=O)N2OS(=O)(=O)O [Example 21, (2S,5R)-sulfuric acid mono-[2-(N′-(2-aminophenyl-acetyl)-hydrazinocarbonyl)-7-oxo-1,6-diaza-bicyclo[3.2.1]oct-6-yl]ester] |  |  | 35 |  |  |  |  |  |  |  |  |  |  |  | 4510 |  | 34 | MIC [1]: 16 µg/mL (≈ 38.7 µM); MIC ([2]; NCTC13353): 16 µg/mL (≈ 38.7 µM); MIC [5]: 16 µg/mL (≈ 38.7 µM)
